For one assay, the system named is Hep-3B cells. Nature of the assay: Cellular assay: EPO secretion in Hep-3B cells. Type of assay: cell-based, human. More on the design: EPO secretion, % of control compound: dose or concentration left out as unconfirmed. The conditions noted are these: Homo sapiens, Hep3B, 24 h, EPO secretion as percentage of control compound 7-[(4-Chloro-phenyl)-(5-methyl-isoxazol-3-ylamino)-methyl]-quinolin-8-ol, read-out: Cellular % EPO Stimulation.

For another assay, the target named is human PHD2181-417 (Homo sapiens (Human), UniProt Q9GZT9). Briefly: PHD2 enzyme activity assay ([14C]-succinic acid production).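 Note: reaction ran 10 min with compound in Tris pH 7.5 buffer with catalase, DTT and ascorbate, labelled succinate freed of leftover 2-oxoglutarate by DNP precipitation, then beta counted.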 Type of assay: biochemical. The conditions noted are these: PHD2181-417 polypeptide, HIF-1α peptide 10 μM, [5-14C]-2-oxoglutaric acid; 30 min pre-incubation; tested 10 μM to 3 nM.
Chain of human PHD2181-417 (Q9GZT9 181-417): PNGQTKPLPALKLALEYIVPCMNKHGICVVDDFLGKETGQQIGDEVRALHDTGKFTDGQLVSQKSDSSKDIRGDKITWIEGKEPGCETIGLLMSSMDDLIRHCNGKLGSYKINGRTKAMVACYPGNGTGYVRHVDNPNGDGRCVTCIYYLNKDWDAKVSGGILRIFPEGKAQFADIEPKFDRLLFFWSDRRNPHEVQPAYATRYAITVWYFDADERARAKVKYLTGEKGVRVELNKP

Molecules are shown by their SMILES.

As for `CCSc1cc2nc(-n3cc(C(=O)O)cn3)[nH]c2cc1C(F)(F)F` [Example 149, 1-(5-Ethylsulfanyl-6-trifluoromethyl-1H-benzoimidazol-2-yl)-1H-pyrazole-4-carboxylic Acid], the EPO secretion, % of control compound with Hep-3B cells stood at 57.8%. Further, the “Enzyme pIC50” value on human PHD2181-417 came to 7.3.
`CCSc1cc2nc(-n3cc(C(=O)O)cn3)[nH]c2cc1OC(F)(F)F` [Example 150, 1-(5-Ethylsulfanyl-6-trifluoromethoxy-1H-benzoimidazol-2-yl)-1H-pyrazole-4-carboxylic Acid]: in the assay with Hep-3B cells, the EPO secretion, % of control compound turned out to be 47.2%. Also, the “Enzyme pIC50” value on human PHD2181-417 amounted to 7.2.
Turning to `CCSc1cc2nc(-n3cc(C(=O)O)cn3)[nH]c2cc1F` [Example 151, 1-(5-Ethylsulfanyl-6-fluoro-1H-benzoimidazol-2-yl)-1H-pyrazole-4-carboxylic Acid], in the assay with Hep-3B cells, the EPO secretion, % of control compound stood at 107%. Further, the “Enzyme pIC50” value on human PHD2181-417 is on record as 6.9.
On to `CCS(=O)(=O)c1cc2nc(-n3cc(C(=O)O)cn3)[nH]c2cc1C(F)(F)F` [Example 154, 1-(5-Ethylsulfonyl-6-trifluoromethyl-1H-benzoimidazol-2-yl)-1H-pyrazole-4-carboxylic Acid], for which the EPO secretion, % of control compound with Hep-3B cells is 53.8%. The “Enzyme pIC50” value on human PHD2181-417 is 7.6.
On to `CCS(=O)(=O)c1cc2nc(-n3cc(C(=O)O)cn3)[nH]c2cc1OC(F)(F)F` [Example 155, 1-(5-Ethylsulfonyl-6-trifluoromethoxy-1H-benzoimidazol-2-yl)-1H-pyrazole-4-carboxylic Acid], for which the EPO secretion, % of control compound in the assay with Hep-3B cells came to 47.2%. Further, on human PHD2181-417, the “Enzyme pIC50” value turned out to be 7.6.
As to `CCS(=O)(=O)c1cc2nc(-n3cc(C(=O)O)cn3)[nH]c2cc1F` [Example 156, 1-(5-Ethylsulfonyl-6-fluoro-1H-benzoimidazol-2-yl)-1H-pyrazole-4-carboxylic Acid], the EPO secretion, % of control compound with Hep-3B cells was 51.9%. Moreover, the “Enzyme pIC50” value at human PHD2181-417 was determined as 7.4.
Regarding `O=C(O)c1cnn(-c2nc3cc(Sc4ccccc4)c(C(F)(F)F)cc3[nH]2)c1` [Example 159, 1-(5-Phenylsulfanyl-6-trifluoromethyl-1H-benzoimidazol-2-yl)-1H-pyrazole-4-carboxylic Acid], the EPO secretion, % of control compound in the assay with Hep-3B cells was 11%. Also, the “Enzyme pIC50” value at human PHD2181-417 is 7.4.
For the compound `COc1ccc(Sc2cc3nc(-n4cc(C(=O)O)cn4)[nH]c3cc2C(F)(F)F)cc1` [Example 160, 1-[5-(4-Methoxy-phenylsulfanyl)-6-trifluoromethyl-1H-benzoimidazol-2-yl]-1H-pyrazole-4-carboxylic Acid], the EPO secretion, % of control compound in the assay on Hep-3B cells was found to be 36.1%. Besides, the “Enzyme pIC50” value on human PHD2181-417 is recorded as 7.5.
Take `O=C(O)c1cnn(-c2nc3cc(S(=O)(=O)c4ccccc4)c(C(F)(F)F)cc3[nH]2)c1` [Example 161, 1-(5-Benzenesulfonyl-6-trifluoromethyl-1H-benzoimidazol-2-yl)-1H-pyrazole-4-carboxylic Acid]: the EPO secretion, % of control compound with Hep-3B cells was 98.2%. Besides, on human PHD2181-417, the “Enzyme pIC50” value is given as 7.6.
Take `COc1ccc(S(=O)(=O)c2cc3nc(-n4cc(C(=O)O)cn4)[nH]c3cc2C(F)(F)F)cc1` [Example 162, 1-[5-(4-Methoxy-benzenesulfonyl)-6-trifluoromethyl-1H-benzoimidazol-2-yl]-1H-pyrazole-4-carboxylic Acid]: the EPO secretion, % of control compound with Hep-3B cells worked out at 45.8%. Besides, the “Enzyme pIC50” value on human PHD2181-417 stood at 7.6.
Consider `O=C(O)c1cnn(-c2nc3cc(SCc4ccc(Cl)cc4)c(Cl)cc3[nH]2)c1` [Example 163, 1-[6-Chloro-5-(4-chloro-benzylsulfanyl)-1H-benzoimidazol-2-yl]-1H-pyrazole-4-carboxylic Acid], for which the EPO secretion, % of control compound in the assay with Hep-3B cells came out at 37%. Also, at human PHD2181-417, the “Enzyme pIC50” value stood at 6.5.
With `O=C(O)c1cnn(-c2nc3cc(SCc4cccc(Cl)c4)c(Cl)cc3[nH]2)c1` [Example 164, 1-[6-Chloro-5-(3-chloro-benzylsulfanyl)-1H-benzoimidazol-2-yl]-1H-pyrazole-4-carboxylic Acid], in the assay with Hep-3B cells, the EPO secretion, % of control compound amounted to 27.4%. Also, on human PHD2181-417, the “Enzyme pIC50” value is given as 6.6.
For `O=C(O)c1cnn(-c2nc3cc(SCC4CCCCC4)c(Cl)cc3[nH]2)c1` [Example 165, 1-(6-Chloro-5-cyclohexylmethylsulfanyl-1H-benzoimidazol-2-yl)-1H-pyrazole-4-carboxylic Acid] the same measures were 27.3% and 6.9.
On to `O=C(O)c1cnn(-c2nc3cc(SCCN4CCOCC4)c(Cl)cc3[nH]2)c1` [Example 166, 1-[6-Chloro-5-(2-morpholin-4-yl-ethylsulfanyl)-1H-benzoimidazol-2-yl]-1H-pyrazole-4-carboxylic Acid], for which, in the assay on Hep-3B cells, the EPO secretion, % of control compound was determined as 15.1%. The “Enzyme pIC50” value on human PHD2181-417 was 7.
As to `O=C(O)c1cnn(-c2nc3cc(SCc4ccc(Cl)c(Cl)c4)c(Cl)cc3[nH]2)c1` [Example 167, 1-[6-Chloro-5-(3,4-dichloro-benzylsulfanyl)-1H-benzoimidazol-2-yl]-1H-pyrazole-4-carboxylic Acid], in the assay on Hep-3B cells, the EPO secretion, % of control compound stood at 25.8%. In addition, the “Enzyme pIC50” value on human PHD2181-417 is reported as 6.4.
With `O=C(O)c1cnn(-c2nc3cc(SCc4c(Cl)cccc4Cl)c(Cl)cc3[nH]2)c1` [Example 168, 1-[6-Chloro-5-(2,6-dichloro-benzylsulfanyl)-1H-benzoimidazol-2-yl]-1H-pyrazole-4-carboxylic Acid], the EPO secretion, % of control compound with Hep-3B cells was 50.1%. Besides, on human PHD2181-417, the “Enzyme pIC50” value was determined as 7.3.
Turning to `O=C(O)c1cnn(-c2nc3cc(S(=O)(=O)Cc4ccc(Cl)cc4)c(Cl)cc3[nH]2)c1` [Example 173, 1-[6-Chloro-5-(4-chloro-phenylmethanesulfonyl)-1H-benzoimidazol-2-yl]-1H-pyrazole-4-carboxylic Acid], the EPO secretion, % of control compound in the assay with Hep-3B cells was found to be 60.4%. On human PHD2181-417, the “Enzyme pIC50” value was found to be 7.8.
`O=C(O)c1cnn(-c2nc3cc(S(=O)(=O)Cc4cccc(Cl)c4)c(Cl)cc3[nH]2)c1` [Example 174, 1-[6-Chloro-5-(3-chloro-phenylmethanesulfonyl)-1H-benzoimidazol-2-yl]-1H-pyrazole-4-carboxylic Acid]: the EPO secretion, % of control compound in the assay with Hep-3B cells stood at 40.9%. Also, at human PHD2181-417, the “Enzyme pIC50” value is 7.6.
For `O=C(O)c1cnn(-c2nc3cc(S(=O)(=O)CC4CCCCC4)c(Cl)cc3[nH]2)c1` [Example 175, 1-(6-Chloro-5-cyclohexylmethanesulfonyl-1H-benzoimidazol-2-yl)-1H-pyrazole-4-carboxylic Acid], the EPO secretion, % of control compound in the assay on Hep-3B cells worked out at 48.7%. In addition, the “Enzyme pIC50” value at human PHD2181-417 was determined as 7.7.
With `O=C(O)c1cnn(-c2nc3cc(S(=O)(=O)Cc4ccc(Cl)c(Cl)c4)c(Cl)cc3[nH]2)c1` [Example 176, 1-[6-Chloro-5-(3,4-dichloro-phenylmethanesulfonyl)-1H-benzoimidazol-2-yl]-1H-pyrazole-4-carboxylic Acid], the EPO secretion, % of control compound with Hep-3B cells was found to be 44.2%. Further, at human PHD2181-417, the “Enzyme pIC50” value is given as 7.6.
With `O=C(O)c1cnn(-c2nc3cc(S(=O)(=O)Cc4c(Cl)cccc4Cl)c(Cl)cc3[nH]2)c1` [Example 177, 1-[6-Chloro-5-(2,6-dichloro-phenylmethanesulfonyl)-1H-benzoimidazol-2-yl]-1H-pyrazole-4-carboxylic Acid], the EPO secretion, % of control compound in the assay with Hep-3B cells is 66.6%. For the same compound, at human PHD2181-417, the “Enzyme pIC50” value is 7.5.
Turning to `O=C(O)c1cnn(-c2nc3nc4ccccc4nc3[nH]2)c1` [Example 182, 1-(1H-Imidazo[4,5-b]quinoxalin-2-yl)-1H-pyrazole-4-carboxylic Acid], the EPO secretion, % of control compound in the assay on Hep-3B cells is 13.4%. Moreover, the “Enzyme pIC50” value on human PHD2181-417 was found to be 5.5.
Regarding `O=C(O)c1cnn(-c2nc3nc4cc(Cl)c(Cl)cc4nc3[nH]2)c1` [Example 183, 1-(6,7-Dichloro-1H-imidazo[4,5-b]quinoxalin-2-yl)-1H-pyrazole-4-carboxylic Acid], the EPO secretion, % of control compound in the assay with Hep-3B cells was 3.3%. The “Enzyme pIC50” value at human PHD2181-417 was 6.4.
In the case of `O=C(O)c1cnn(-c2nc3nccnc3[nH]2)c1` [Example 184, 1-(1H-Imidazo[4,5-b]pyrazin-2-yl)-1H-pyrazole-4-carboxylic Acid], in the assay on Hep-3B cells, the EPO secretion, % of control compound stood at 8.3%. Besides, the “Enzyme pIC50” value on human PHD2181-417 came out at 5.9.
For `O=C(O)c1cnn(-c2nc3c(Cl)ncnc3[nH]2)c1` [Example 185, 1-(6-Chloro-9H-purin-8-yl)-1H-pyrazole-4-carboxylic Acid] the same measures were 11.7% and 5.3.
In the case of `O=C(O)c1cnn(-c2nc3cc(S(=O)(=O)Nc4ccccc4)c(Cl)cc3[nH]2)c1` [Example 186, 1-(6-Chloro-5-phenylsulfamoyl-1H-benzoimidazol-2-yl)-1H-pyrazole-4-carboxylic Acid], in the assay on Hep-3B cells, the EPO secretion, % of control compound turned out to be 39.1%. For the same compound, the “Enzyme pIC50” value on human PHD2181-417 is recorded as 7.4.

Values taken from patent US10851083B2, “Benzoimidazoles as prolyl hydroxylase inhibitors” (Janssen Pharmaceutica NV, priority 2008, dated 2020).
